The text below walks through data of ChEMBL document CHEMBL3044974, “Design, synthesis, insecticidal activity and structure-activity relationship of 3,3-dichloro-2-propenyloxy-containing phthalic acid diamide structures” (2012).

SMILES strings stand for the structures.

The mortality is the percentage killed.

Holding throughout (assay type): functional
The test system of assay [1] is Plutella xylostella. The assay can be described thus: Insecticidal activity against Plutella xylostella (diamondback moth) third-instar larvae reared on 100 ug/mL compound pre-treated cabbage leaf disks assessed as insect mortality measured after 3 days post compound treatment by leaf dipping method.
Assay [2] relates to Plutella xylostella. The assay can be described thus: Insecticidal activity against Plutella xylostella (diamondback moth) third-instar larvae reared on 100 ug/mL compound pre-treated cabbage leaf disks assessed as insect mortality measured after 2 days post compound treatment by leaf dipping method.
Assay [3] relates to Plutella xylostella. As to the kind of experiment: Insecticidal activity against Plutella xylostella (diamondback moth) third-instar larvae reared on 10 ug/mL compound pre-treated cabbage leaf disks assessed as insect mortality measured after 3 days post compound treatment by leaf dipping method.
Assay [4] has as its system Plutella xylostella. As to the kind of experiment: Insecticidal activity against Plutella xylostella (diamondback moth) third-instar larvae reared on 10 ug/mL compound pre-treated cabbage leaf disks assessed as insect mortality measured after 2 days post compound treatment by leaf dipping method.

Turning to `COCC(C)(C)NC(=O)c1c(I)cccc1C(=O)Nc1ccc(OCC=C(Cl)Cl)cc1F`, the values for the mortality in assay [1] and in assay [2] were 61% and 47%, respectively.
Consider `CC(C)(C)NC(=O)c1c(I)cccc1C(=O)Nc1ccc(OCC=C(Cl)Cl)cc1F`, for which the mortality in assay [3] was determined as 0%; in assay [4] it was 0%; in assay [1], 100%; in assay [2], 81%.
In the case of `Cc1cc(OCC=C(Cl)Cl)ccc1NC(=O)c1cccc(I)c1C(=O)NC(C)(C)C`, the mortality is on record as 58% in assay [3], 32% in assay [4], 100% in assay [1] and 69% in assay [2].
For the compound `CSCC(C)(C)NC(=O)c1c(I)cccc1C(=O)Nc1ccc(OCC=C(Cl)Cl)c(C)c1`, the mortality in assay [1] came to 10%; in assay [2] it was 0%.
Consider `CC(C)(C)NC(=O)c1c(I)cccc1C(=O)Nc1ccc(OCC=C(Cl)Cl)cc1`, for which the mortality was found to be 78% in assay [1] and 39% in assay [2].
On the same counts, the results for `COCC(C)(C)NC(=O)c1c(I)cccc1C(=O)Nc1ccc(OCC=C(Cl)Cl)cc1C` are 72% and 47%.
As to `CC(C)(CS(C)(=O)=O)NC(=O)c1c(I)cccc1C(=O)Nc1ccc(OCC=C(Cl)Cl)c(Cl)c1`, the mortality in assay [1] stood at 48%; in assay [2], 24%.
On to `CC(C)(CS(C)(=O)=O)NC(=O)c1c(I)cccc1C(=O)Nc1ccc(OCC=C(Cl)Cl)cc1C(F)(F)F`, for which the mortality in assay [1] turned out to be 69%; in assay [2], 25%.
`CC(C)(C)NC(=O)c1c(I)cccc1C(=O)Nc1ccc(OCC=C(Cl)Cl)c(Cl)c1`: the mortality in assay [1] was 76%; in assay [2] it was 57%.
In the case of `FC(F)(F)c1ccc(OCCCOc2c(Cl)cc(OCC=C(Cl)Cl)cc2Cl)nc1` [PYRIDALYL], the mortality in assay [3] is listed as 37%; in assay [4], 13%; in assay [2] it was 100%.
For the compound `Cc1cc(OCC=C(Cl)Cl)ccc1NC(=O)c1cccc(I)c1C(=O)NC(C)(C)CS(C)(=O)=O`, the mortality is 81% in assay [1] and 76% in assay [2].
`Cc1cc(C(F)(C(F)(F)F)C(F)(F)F)ccc1NC(=O)c1cccc(I)c1C(=O)NC(C)(C)CS(C)(=O)=O` [FLUBENDIAMIDE]: the mortality in assay [3] is 100%; in assay [4], 67%; in assay [2] it was 100%.
For the compound `COCC(C)(C)NC(=O)c1c(I)cccc1C(=O)Nc1ccc(OCC=C(Cl)Cl)cc1C(F)(F)F`, the mortality in assay [1] worked out at 44%; in assay [2], 32%.
On to `Cc1cc(NC(=O)c2cccc(I)c2C(=O)NC(C)(C)CS(C)(=O)=O)ccc1OCC=C(Cl)Cl`, for which the mortality was 19% in assay [1] and 8% in assay [2].
In the case of `CC(C)(C)NC(=O)c1c(I)cccc1C(=O)Nc1ccc(OCC=C(Cl)Cl)c(C(F)(F)F)c1`, the values for the mortality in assay [1] and in assay [2] were 8% and 0%, respectively.
On the same counts, the results for `COCC(C)(C)NC(=O)c1c(I)cccc1C(=O)Nc1ccc(OCC=C(Cl)Cl)c(C)c1` are 70% and 42%.
`CSCC(C)(C)NC(=O)c1c(I)cccc1C(=O)Nc1ccc(OCC=C(Cl)Cl)cc1C`: the mortality in assay [3] amounted to 19%; in assay [4] it was 10%; in assay [1], 95%; in assay [2] it was 90%.
As for `CSCC(C)(C)NC(=O)c1c(I)cccc1C(=O)Nc1ccc(OCC=C(Cl)Cl)cc1F`, the mortality in assay [3] worked out at 0%; in assay [4] it was 0%; in assay [1], 100%; in assay [2] it was 58%.
Turning to `CSCC(C)(C)NC(=O)c1c(I)cccc1C(=O)Nc1ccc(OCC=C(Cl)Cl)cc1Cl`, the mortality turned out to be 43% in assay [3], 0% in assay [4] and 100% in assay [2].
On to `Cc1cc(NC(=O)c2cccc(I)c2C(=O)NC(C)(C)C)ccc1OCC=C(Cl)Cl`, for which the mortality in assay [1] is recorded as 25%; in assay [2] it was 0%.
On the same counts, the results for `CC(C)(CS(C)(=O)=O)NC(=O)c1c(I)cccc1C(=O)Nc1ccc(OCC=C(Cl)Cl)cc1F` are 90% and 55%.
`CC(C)(C)NC(=O)c1c(I)cccc1C(=O)Nc1ccc(OCC=C(Cl)Cl)cc1Cl`: the mortality in assay [3] was 91%; in assay [4] it was 65%; in assay [1], 100%; in assay [2], 90%.
In the case of `CC(C)(CS(C)(=O)=O)NC(=O)c1c(I)cccc1C(=O)Nc1ccc(OCC=C(Cl)Cl)cc1`, the values for the mortality in assay [1] and in assay [2] were 60% and 15%, respectively.
Take `CC(C)(CS(C)(=O)=O)NC(=O)c1c(I)cccc1C(=O)Nc1ccc(OCC=C(Cl)Cl)c(C(F)(F)F)c1`: the mortality in assay [1] and in assay [2] was 0% each time.
Turning to `CC(C)(CS(C)(=O)=O)NC(=O)c1c(I)cccc1C(=O)Nc1ccc(OCC=C(Cl)Cl)cc1Cl`, the mortality in assay [3] is listed as 20%; in assay [4] it was 0%; in assay [1], 100%; in assay [2], 75%.
On to `CSCC(C)(C)NC(=O)c1c(I)cccc1C(=O)Nc1ccc(OCC=C(Cl)Cl)cc1`, for which the mortality is 45% in assay [1] and 15% in assay [2].
Consider `CSCC(C)(C)NC(=O)c1c(I)cccc1C(=O)Nc1ccc(OCC=C(Cl)Cl)cc1C(F)(F)F`, for which the mortality came out at 62% in assay [1] and 57% in assay [2].
On the same counts, the results for `COCC(C)(C)NC(=O)c1c(I)cccc1C(=O)Nc1ccc(OCC=C(Cl)Cl)c(Cl)c1` are 61% and 42%.
The matching figures for `CSCC(C)(C)NC(=O)c1c(I)cccc1C(=O)Nc1ccc(OCC=C(Cl)Cl)c(C(F)(F)F)c1`: 0% and 0%.
In the case of `COCC(C)(C)NC(=O)c1c(I)cccc1C(=O)Nc1ccc(OCC=C(Cl)Cl)cc1Cl`, the results for the mortality in assay [1] and in assay [2] were 63% and 54%, respectively.
As for `CC(C)(C)NC(=O)c1c(I)cccc1C(=O)Nc1ccc(OCC=C(Cl)Cl)cc1C(F)(F)F`, the mortality in assay [1] turned out to be 90%; in assay [2] it was 65%.
Consider `COCC(C)(C)NC(=O)c1c(I)cccc1C(=O)Nc1ccc(OCC=C(Cl)Cl)c(C(F)(F)F)c1`, for which the results for the mortality in assay [1] and in assay [2] were 44% and 42%, respectively.
With `CSCC(C)(C)NC(=O)c1c(I)cccc1C(=O)Nc1ccc(OCC=C(Cl)Cl)c(Cl)c1`, the mortality in assay [1] stood at 81%; in assay [2] it was 38%.
